System: herpes disease in the lip region (herpes blisters)
Assay: Topical application of the composition in the oral and/or pharyngeal cavity of voluntary test persons (herpes blisters, other inflammations)
Assay type: in vivo, human (voluntary test persons)
Details: a test subject
Description: This composition was applied in the oral and/or pharyngeal cavity of voluntary test persons. When there were signs that herpes blisters were about to occur or when herpes blisters had already occurred, the composition was applied several times daily to the affected skin sites using a cotton bud. In the case of other inflammations in the oral and/or pharyngeal cavity the solution was also either applied locally or a dilution of this solution was gurgled.

Structure (SMILES): Nc1nc2c(ncn2COCCO)c(=O)[nH]1 [Aciclovir]
- relapse / reoccurrence after treatment and healing of acute herpes blisters: relapses very often occurred again within the following 14 days

— US20080171097A1, “PRODUCT LIQUORICE ROOT AND OAK BARK IN COMBINATION WITH DEXAPANTHENOL” (priority 2007, published 2008)
